Laboratory results published in the NIST ThermoML archive (doi:10.1016/j.jct.2016.06.034).

Experiment: osmotic coefficient (dimensionless); mn = molality of the nth substance listed, in mol/kg
Conditions: 308.15 K, 84.5 kPa, Liquid, Knauer Osmomat K-7000

CCCCCCCCCCn1cc[n+](C)c1.[Br-] [1-decyl-3-methylimidazolium bromide] + O
Conditions | osmotic coefficient
m1 = 0.01036 | 1.233
m1 = 0.01532 | 1.16
m1 = 0.01539 | 1.154
m1 = 0.02001 | 1.11
m1 = 0.02014 | 1.106
m1 = 0.02471 | 1.081
m1 = 0.02479 | 1.075
m1 = 0.03022 | 1.06
m1 = 0.03026 | 1.055
m1 = 0.03486 | 1.021
m1 = 0.0384 | 0.9873
m1 = 0.03983 | 0.9742
m1 = 0.04483 | 0.8983
m1 = 0.04981 | 0.8319
m1 = 0.05918 | 0.735
m1 = 0.06429 | 0.687
m1 = 0.06983 | 0.644
m1 = 0.07967 | 0.579
m1 = 0.08811 | 0.53
m1 = 0.09976 | 0.48
m1 = 0.1175 | 0.417
